Structures are written as SMILES. Where a name gives a salt, the structure may show the parent alone. Read-outs that look alike come from different tables or passages of the source.

In assay [1] the target is T1, α2A receptor (Homo sapiens, UniProt P08913).
T1 construct: host or cells: LM(tk-) cells, line L-α2A
T1 sequence (P08913 1-465): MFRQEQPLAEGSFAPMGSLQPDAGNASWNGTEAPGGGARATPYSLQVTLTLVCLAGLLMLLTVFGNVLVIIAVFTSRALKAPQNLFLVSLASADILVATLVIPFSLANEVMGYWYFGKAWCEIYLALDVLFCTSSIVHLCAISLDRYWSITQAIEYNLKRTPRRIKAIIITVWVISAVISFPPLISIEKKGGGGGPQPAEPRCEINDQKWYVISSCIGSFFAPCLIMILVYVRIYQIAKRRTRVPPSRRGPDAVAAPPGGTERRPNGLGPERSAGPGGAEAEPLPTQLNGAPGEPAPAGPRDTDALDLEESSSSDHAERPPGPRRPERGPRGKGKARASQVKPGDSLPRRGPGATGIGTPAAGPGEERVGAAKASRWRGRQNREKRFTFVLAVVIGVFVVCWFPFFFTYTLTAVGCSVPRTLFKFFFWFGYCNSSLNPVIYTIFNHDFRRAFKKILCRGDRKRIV
In words: Competition binding, [3H]rauwolscine, human α2A receptor. Summed up:
(§1)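 Lysates of LM(tk−) cells stably expressing each α2 subtype were suspended in 25 mM glycylglycine buffer (pH 7.6 at room temperature). Equilibrium competition binding used 0.5 nM [3H]rauwolscine, with nonspecific binding defined by 10 μM phentolamine; bound radioligand was separated by GF/B filtration.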

Assay [2] deals with T2, α2B receptor (Homo sapiens, UniProt P18089).
T2 construct: host or cells: LM(tk-) cells, line L-NGC-α2B
T2 sequence (P18089 1-450): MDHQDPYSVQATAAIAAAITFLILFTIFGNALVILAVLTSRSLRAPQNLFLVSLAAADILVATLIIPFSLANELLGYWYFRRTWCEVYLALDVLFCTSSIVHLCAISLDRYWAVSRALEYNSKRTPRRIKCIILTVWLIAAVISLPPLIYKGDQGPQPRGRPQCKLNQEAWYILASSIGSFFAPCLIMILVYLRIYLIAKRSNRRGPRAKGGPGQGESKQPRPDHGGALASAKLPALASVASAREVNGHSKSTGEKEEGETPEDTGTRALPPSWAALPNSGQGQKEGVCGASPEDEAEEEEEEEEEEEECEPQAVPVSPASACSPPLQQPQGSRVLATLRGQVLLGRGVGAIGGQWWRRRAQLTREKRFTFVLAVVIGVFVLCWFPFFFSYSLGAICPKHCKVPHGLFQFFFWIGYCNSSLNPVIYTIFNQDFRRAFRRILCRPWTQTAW
In words: Competition binding, [3H]rauwolscine, human α2B receptor. The following applies: pKi alpha-2 2b. The method, boiled down: as §1

In assay [3] the target is T3, α1C Human Adrenergic Receptor (Homo sapiens, UniProt P35348).
T3 construct: The entire coding region of α1C (1401 bp); expressed in transfected cells
T3 sequence (P35348 1-466): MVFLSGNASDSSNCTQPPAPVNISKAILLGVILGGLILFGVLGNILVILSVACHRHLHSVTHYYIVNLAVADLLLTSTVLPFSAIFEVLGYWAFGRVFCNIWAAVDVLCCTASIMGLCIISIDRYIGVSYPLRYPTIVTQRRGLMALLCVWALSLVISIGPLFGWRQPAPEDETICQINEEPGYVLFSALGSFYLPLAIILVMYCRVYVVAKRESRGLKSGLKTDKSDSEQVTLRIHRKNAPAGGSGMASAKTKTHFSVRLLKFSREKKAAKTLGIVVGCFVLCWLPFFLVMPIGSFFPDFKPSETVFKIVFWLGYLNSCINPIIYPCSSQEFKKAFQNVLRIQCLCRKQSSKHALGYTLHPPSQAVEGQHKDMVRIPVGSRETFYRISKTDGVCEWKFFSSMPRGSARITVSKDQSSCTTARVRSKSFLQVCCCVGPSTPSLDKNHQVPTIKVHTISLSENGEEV
As to the kind of experiment: Radioligand binding, [3H]prazosin, cloned human α1C adrenergic receptor. Summed up:
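Stably transfected mouse LM(tk−) fibroblast membranes bearing the cloned human α1C adrenoceptor served as receptor source. Specific binding was taken as the portion of 0.5 nM [3H]prazosin displaceable by 10 μM phentolamine after 20 min at 37° C., pH 7.5, in Mg2+/ascorbate-containing Tris buffer.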

The mark [4] stands for this setting: [3H]rauwolscine, human α2A receptor, LM(tk−) cells, read-out: pKi alpha-2 2a (converted).
[5] abbreviates: [3H]rauwolscine, human α2B receptor, LM(tk−) cells.
Setting [6] is: pKi alpha-1 1c, cloned human α1C receptor, LM(tk−) cell membranes.
Where [7] appears, read: cloned human receptor in LM(tk-) cell membranes, SEM and n in lines below, read-out: pKi alpha-1 1c (converted).

As for `CCC1=C(C(N)=O)C(c2ccc([N+](=O)[O-])cc2)C(C(=O)NCCCN2CCC(C#N)(c3ccccc3)CC2)=C(CC)N1` (single isomer, unassigned; (+)) [(+)-102], the figures for the Ki in assay [1] (setting [4]), in assay [2] (setting [5]) and in assay [3] (setting [6]) were 3890 nM, 1910 nM and 2.63 nM, respectively.

Turning to `COC(=O)C1=C(C)NC(C)=C(C(=O)NCCCN2CCC(c3ccccc3)(c3ccccc3)CC2)C1c1ccc(Br)cc1` (stereo not drawn) [Example 15, 4-(4-Bromophenyl)-1,4-dihydro-3-methoxycarbonyl-2,6-dimethyl-5-(N-(3-(4,4-diphenylpiperidin-1-yl)propyl)carboxamido)pyridine], the results for the Ki in assay [1], in assay [2] and in assay [3] (setting [7]) were 2450 nM, 3390 nM and 6.31 nM, respectively.

Turning to `COC(=O)C1=C(C)NC(C)=C(C(=O)NCCCN2CCC(c3ccccc3)(c3ccccc3)CC2)C1c1ccc(C(F)(F)F)cc1` (stereo not drawn) [Example 1], the Ki is 2400 nM in assay [1], 3310 nM in assay [2] and 30.2 nM in assay [3] (setting [7]).

On to `CCC1=C(C(N)=O)C(c2ccc(S(C)(=O)=O)cc2)C(C(=O)NCCCN2CCC(c3ccccc3)(c3ccccc3)CC2)=C(CC)N1` (stereo not drawn) [Example 116, 5-Carboxamido-2,6-diethyl-1,4-dihydro-4-(4-methanesulfonylphenyl)-3-(N-(3-(4,4-diphenylpiperidin-1-yl)propyl)carboxamido)-pyridine], for which the Ki in assay [1] (setting [4]) was 1450 nM; in assay [2] (setting [5]), 372 nM; in assay [3] (setting [6]), 3.89 nM.

Turning to `COC(=O)C1=C(C)NC(C)=C(C(=O)NCCCN2CCC(c3ccccc3)(c3ccccc3)CC2)C1c1ccc(Cl)cc1` (stereo not drawn) [Example 10, 4-(4-Chlorophenyl)-1,4-dihydro-5-methoxycarbonyl-2,6-Dimethyl-5-(N-(3-(4,4-diphenylpiperidin-1-yl)propyl)carboxamido)pyridine], the figures for the Ki in assay [1], in assay [2] and in assay [3] (setting [7]) were 2340 nM, 3310 nM and 1.78 nM, respectively.

In the case of `COC(=O)C1=C(C)NC(C)=C(C(=O)NCCCN2CCC(c3ccccc3)(c3ccccc3)CC2)C1c1ccc(C)cc1` (stereo not drawn) [Example 19, 1,4-Dihydro-3-methoxycarbonyl-1,6-dimethyl-4-(4-methylphenyl)-5-(N-(3-(4,4-diphenylpiperidin-1-yl)propyl)carboxamido)pyridine], the Ki in assay [1] is 1290 nM; in assay [2], 912 nM; in assay [3] (setting [7]), 1.35 nM.

Consider `COC(=O)C1=C(C)NC(C)=C(C(=O)NCCCN2CCC(c3ccccc3)(c3ccccc3)CC2)C1c1cccnc1` (stereo not drawn) [Example 14, 1,4-Dihydro-3-methoxycarbonyl-2.6-dimethyl-5-(N-(3-(4,4-diphenylpiperidin-1-yl)propyl)carboxamido)-4-(3-pyridyl)pyridine], for which the Ki is 2880 nM in assay [1] ([3H]rauwolscine, LM(tk-) cell line L-α2A, SEM and n in lines below, read-out: pKi alpha-2 2a (converted)); 1350 nM in assay [2] ([3H]rauwolscine, LM(tk-) cell line L-NGC-α2B, SEM and n in lines below); 40.7 nM in assay [3] (pKi alpha-1 1c, cloned human receptor in LM(tk-) cell membranes, SEM and n in lines below).

With `CCC1=C(C(=O)NCCCN2CCC(c3ccccc3)(c3ccccc3)CC2)C(c2ccc([N+](=O)[O-])cc2)C(C(=O)NC)=C(COCCN=[N+]=[N-])N1` (stereo not drawn) [Example 151, 2-((2-Azidoethyl)oxy)methyl-6-ethyl-1,4-dihydro-3-(N-methyl)carboxamido-4-(4-nitro)phenyl-5-(N-(3-(4,4-diphenylpiperidin-1-yl)propyl))carboxamidopyridine], the Ki in assay [1] (setting [4]) is 562 nM; in assay [2] (setting [5]), 537 nM; in assay [3] (setting [6]), 12.3 nM.

Regarding `CCOC(=O)C1=C(CC(=O)NCCCN2CCC(c3ccccc3)(c3ccccc3)CC2)NC(C)=C(C(=O)OC)C1c1ccc([N+](=O)[O-])cc1` (stereo not drawn) [Example 89, 3-Ethoxycarbonyl-1,4-dihydro-5-methoxycarbonyl-6-methyl-4-(4-nitro)phenyl-2-(N-(3-(4,4,-diphenylpiperidin-1-yl)propyl)carboxamido)methylpyridine, fumarate salt], the Ki in assay [1] is 2340 nM; in assay [2] it was 1950 nM; in assay [3] (cloned human α1C receptor, LM(tk−) cell membranes, read-out: pKi alpha-1 1c (converted)), 501 nM.

`COC(=O)C1=C(C)NC(c2ccccc2)=C(C(=O)NCCCN2CCC(c3ccccc3)(c3ccccc3)CC2)C1c1ccc([N+](=O)[O-])cc1` (stereo not drawn) [Example 78, 1,4-Dihydro-5-methoxycarbonyl-6-methyl-4-(4-nitro)phenyl-2-phenyl-3-(N-(3-(4,4-diphenylpiperidin-1-yl)propyl))carboxamidopyridine hydrochloride hydrate]: the Ki is 724 nM in assay [1], 550 nM in assay [2] and 4.27 nM in assay [3] (setting [7]).

On to `COC(=O)C1=C(C)NC(C)=C(C(=O)NCCCN2CCC(c3ccccc3)(c3ccccc3)CC2)C1c1ccc(C(=O)OC)cc1` (stereo not drawn) [Example 25, 1,4-Dihydro-3-methoxycarbonyl-4-(4-methoxycarbonylphenyl)-2,6-dimethyl-5-(N-(3-(4,4-diphenylpiperidin-1-yl)propyl)carboxamide)pyridine], for which the Ki is 1510 nM in assay [1], 501 nM in assay [2] and 33.9 nM in assay [3] (setting [7]).

Take `COC(=O)C1=C(C)NC(C)=C(C(=O)NCCCN2CCC(c3ccccc3)(c3ccccc3)CC2)C1c1ccc(C(C)C)cc1` (stereo not drawn) [Example 18, 1,4-Dihydro-4-(4-isopropylphenyl)-3-methoxycarbonyl-2,6-dimethyl-5-(N-(3-(4,4-diphenylpiperidin-1-yl)propyl)carboxamido)pyridine]: the Ki in assay [1] was 2140 nM; in assay [2] it was 1620 nM; in assay [3] (setting [7]), 69.2 nM.

Turning to `COC(=O)C1=C(C)NC(C)=C(C(=O)NCCCN2CCC(c3ccccc3)(c3ccccc3)CC2)C1c1ccc(OC)cc1` (stereo not drawn) [Example 21, 1,4-Dihydro-3-methoxycarbonyl-4-(4-Methoxyphenyl)-2,6-dimethyl-5-(N-(3-(4,4-diphenylpiperidin-1-yl)propyl)carboxamido)pyridine], the Ki in assay [1] was 2090 nM; in assay [2] it was 1070 nM; in assay [3] (setting [7]), 7.08 nM.

As for `CCC1=C(C(N)=O)C(c2ccc([N+](=O)[O-])cc2)C(C(=O)NCCCN2CCC(C#N)(c3ccccc3)CC2)=C(CC)N1` (racemic) [(±)-102, 5-Carboxamido-3-{N-[(4-cyano-4-phenylpiperidin-1-ly)propyl]carboxamido-2,6-diethyl-1,4-dihydro-4-(4-nitrophenyl)pyridine hydrochloride hydrate], the Ki is 2880 nM in assay [1] (setting [4]), 1020 nM in assay [2] (setting [5]) and 3.8 nM in assay [3] (setting [6]).

As to `COc1cccc(C2C(C(N)=O)=C(C)NC(C)=C2C(=O)NCCCN2CCC(c3ccccc3)(c3ccccc3)CC2)c1` (stereo not drawn) [Example 117, 5-Carboxamido-1,4-dihydro-4-(3-Methoxyphenyl)-2,6-dimethyl-3-(N-(3-(4,4-diphenylpiperidin-1-yl)propyl)carboxamido)-pyridine], the values for the Ki in assay [1] (setting [4]), in assay [2] (setting [5]) and in assay [3] (setting [6]) were 955 nM, 437 nM and 27.5 nM, respectively.

For the origin of these results see patent US6608086B2, “Dihydropyridines and new uses thereof” (Synaptic Pharmaceutical Corporation, priority 1993, dated 2003).
